Structures can show the parent of a compound that is named as a salt.

In experiment [1] the test system is NCI-H292 lung cancer cells. As to the kind of experiment: FDA drug screening, complete media vs cholesterol-free media with simvastatin (TABLE 2). Format: cell-based, human. Particulars: for Cholesterol-free media + simvastatin (0.04 μM) / Complete Media: NCI-H292 cells; for Difference: complete media vs cholesterol-free media + simvastatin (0.04 μM).
For experiment [2], the system named is NCI-H292 lung cancer cells. As to the kind of experiment: FDA drug screening, complete media vs cholesterol-free media without statin (TABLE 1). The format is cell-based, human.
Where [3] appears, read: drug in cholesterol-free media with simvastatin 0.04 μM.
The mark [4] stands for this setting: >0 enhanced anti-cancer activity, about 0 neutral, <0 antagonist.
[5] abbreviates: NCI-H292 cells, cholesterol-free media without statin, FDA drug library screen.
[6] abbreviates: NCI-H292 cells, complete media, FDA drug library screen.
The mark [7] stands for this setting: complete vs cholesterol-free media, >0 enhanced anti-cancer activity, about 0 neutral, <0 antagonist.
Where [8] appears, read: Complete minus Cholesterol-free, […].
The mark [9] stands for this setting: FDA drug library screen, cholesterol-free media with simvastatin 0.04 μM.
[10] abbreviates: FDA drug library screen, complete media.
Where [11] appears, read: Complete minus Cholesterol-free, >0 enhanced anti-cancer activity, about 0 neutral, <0 antagonist.
Where [12] appears, read: FDA library drug in cholesterol-free media with simvastatin 0.04 μM.
Where [13] appears, read: FDA library drug in complete media.

With `N=C(N)N` [Guanidine (hydrochloride)], in experiment [1] (setting [3]), the “Cholesterol-free media + simvastatin (0.04 μM)” value is on record as 1.136. The “Complete Media” value in experiment [1] (drug in complete media) was determined as 0.9286. Moreover, the Difference in experiment [1] (setting [4]) was −0.21; in experiment [2] (setting [7]), 0.24. In experiment [2] (setting [5]), this molecule gave a Cholesterol-free of 0.9919. For the same molecule, the Complete in experiment [2] (setting [6]) turned out to be 1.237.

With `O=c1c(-c2ccc(O)cc2)coc2cc(O[C@@H]3O[C@H](CO)[C@@H](O)[C@H](O)[C@H]3O)ccc12` [Daidzin], in experiment [1] (setting [3]), the “Cholesterol-free media + simvastatin (0.04 μM)” value came out at 1.011. Further, the “Complete Media” value in experiment [1] (drug in complete media) was 0.8061. Also, the Difference in experiment [1] ([…]) was −0.20; in experiment [2] (setting [8]) it was −0.25. In experiment [2] (NCI-H292 cells, cholesterol-free media without statin), this molecule gave a Cholesterol-free of 1.084. In addition, the Complete in experiment [2] (NCI-H292 cells, complete media) came to 0.8381.

Take `Nc1ccn([C@@H]2O[C@H](CO)[C@@H](O)[C@@H]2O)c(=O)n1` [Cytarabine]: the “Cholesterol-free media + simvastatin (0.04 μM)” value in experiment [1] (setting [9]) came out at 0.2698. In addition, in experiment [1] (setting [10]), the “Complete Media” value is reported as 0.1951. Besides, the values for the Difference in experiment [1] (setting [4]) and in experiment [2] (setting [11]) were −0.07 and −0.05, respectively. This molecule yielded a Cholesterol-free in experiment [2] (setting [5]) of 0.08949. For the same molecule, the Complete in experiment [2] (setting [6]) worked out at 0.04199.

For the molecule `CC(C)OC(=O)C(C)(C)Oc1ccc(C(=O)c2ccc(Cl)cc2)cc1` [Fenofibrate], the “Cholesterol-free media + simvastatin (0.04 μM)” value in experiment [1] (setting [3]) is 1.641. Besides, the “Complete Media” value in experiment [1] (drug in complete media) stood at 1.401. Further, the Difference was −0.24 in experiment [1] (setting [4]) and −0.06 in experiment [2] (setting [11]). The Cholesterol-free in experiment [2] (setting [5]) came to 0.8551. The same molecule returned a Complete in experiment [2] (setting [6]) of 0.7932.

With `NC(=O)[C@@H]1CC[C@@H]2CN1C(=O)N2OS(=O)(=O)O` [Avibactam (sodium hydrate)], the “Cholesterol-free media + simvastatin (0.04 μM)” value in experiment [1] (setting [9]) is 1.124. For the same molecule, in experiment [1] (setting [10]), the “Complete Media” value is reported as 1.029. Further, the Difference in experiment [1] (setting [4]) is recorded as −0.09; in experiment [2] (setting [7]), 0.24. This molecule also showed a Cholesterol-free in experiment [2] (setting [5]) of 0.6447. The molecule further returned a Complete in experiment [2] (setting [6]) of 0.883.

Consider `CC(C)OC(=O)OCOP(=O)(CO[C@H](C)Cn1cnc2c(N)ncnc21)OCOC(=O)OC(C)C` [Tenofovir (Disoproxil)], for which the “Cholesterol-free media + simvastatin (0.04 μM)” value in experiment [1] (setting [12]) is on record as 1.242. Also, the “Complete Media” value in experiment [1] (setting [13]) was found to be 0.9076. The Difference in experiment [1] (setting [4]) is on record as −0.33; in experiment [2] (Complete minus Cholesterol-free, greater than 0 enhanced anti-cancer activity, about 0 neutral, below 0 antagonists), −0.65. The same molecule had a Cholesterol-free in experiment [2] (NCI-H292 cells in cholesterol-free media without statin) of 1.348. In addition, in experiment [2] (NCI-H292 cells in complete media), the Complete came to 0.7009.

Take `C[C@@H]1O[C@@H](OC[C@H]2O[C@@H](Oc3c(-c4ccc(O)c(O)c4)oc4cc(O)cc(O)c4c3=O)[C@H](O)[C@@H](O)[C@@H]2O)[C@H](O)[C@H](O)[C@H]1O` [Rutin]: the “Cholesterol-free media + simvastatin (0.04 μM)” value in experiment [1] (setting [3]) was 1.71. Further, the “Complete Media” value in experiment [1] (drug in complete media) worked out at 1.488. Further, the results for the Difference in experiment [1] (setting [4]) and in experiment [2] (setting [7]) were −0.22 and 0.08, respectively. Besides, the Cholesterol-free in experiment [2] (setting [5]) worked out at 1.229. Further, in experiment [2] (setting [6]), the Complete came to 1.309.

As for `CO[C@@H]1[C@H](OC(=O)/C=C/C=C/C=C/C=C/C(=O)O)CC[C@]2(CO2)[C@H]1[C@@]1(C)O[C@@H]1CC=C(C)C` [Fumagillin], the “Cholesterol-free media + simvastatin (0.04 μM)” value in experiment [1] (setting [12]) is on record as 1.348. In experiment [1] (setting [13]), the “Complete Media” value came out at 1.08. In addition, the Difference was −0.27 in experiment [1] ([…]) and −0.08 in experiment [2] (setting [8]). In experiment [2] (NCI-H292 cells, FDA drug library screen, cholesterol-free media without statin), this molecule registered a Cholesterol-free of 0.6031. The Complete in experiment [2] (NCI-H292 cells, FDA drug library screen, complete media) was 0.519.

With `C=CC[N+]1([C@H]2C[C@H]3[C@@H]4CC[C@H]5C[C@H](OC(C)=O)[C@@H](N6CCCCC6)C[C@]5(C)[C@H]4CC[C@]3(C)[C@H]2OC(=O)CC)CCCCC1` [Rapacuronium bromide], in experiment [1] (setting [12]), the “Cholesterol-free media + simvastatin (0.04 μM)” value is given as 1.051. In experiment [1] (setting [13]), the “Complete Media” value is 0.7626. Further, the figures for the Difference in experiment [1] ([…]) and in experiment [2] (setting [8]) were −0.29 and 0.04, respectively. Besides, in experiment [2] (setting [5]), the Cholesterol-free is 0.8802. Besides, the Complete in experiment [2] (setting [6]) is on record as 0.9158.

Values taken from patent US20250144067A1, “PERSONALIZED STARVATION THERAPY FOR CANCER” (Faeth Therapeutics, Inc., priority 2021, published 2025).
